Reference: PMC3274619 (Bioorganic & medicinal chemistry letters, 2012)

Experiment: Solubility observed during synthesis and purification
Format: physicochemical
Settings: cause of yield and purification difficulties

- solubility: poor solubility
Compound: Cc1nc(N)sc1-c1csc(Nc2cc(N(C)C)ccc2Cl)n1 [compound 15, N^2-(2-chloro-5-(dimethylamino)phenyl)-4′-methyl-[4,5′-bithiazole]-2,2′-diamine]
